Source: patent US4584369A, “Anti-leukemic beta-glycosyl C-nucleosides” (Sloan-Kettering Institute for Cancer Research, priority 1984, dated 1986)
≈ marks a conversion by molar mass, not a printed value.

What was measured:
ALL-CCRF-CEM = assay: In vitro activity in human leukemic cell line ALL-CCRF-CEM; format: cell-based; conditions: read-out: ID50 (the source's name)
Source text: (§1) CNUCLEOSIDES IN MOUSE AND HUMAN LEUKYMIC CELL LINES
(§2) It is noted that the first compound in Table 1 is the compound reported in Lim et al (supra).

HL-60 = assay: In vitro activity in human leukemic cell line HL-60; format: cell-based; conditions: HL-60, in vitro, read-out: ID50 (the source's name)
Source text: as §1, §2

L-1210 = assay: In vitro activity in mouse leukemic cell line L-1210; format: cell-based; conditions: L1210, L-1210, in vitro, read-out: ID50 (the source's name)
Source text: as §1, §2

leukemic cells = assay: Anti-leukemic / antitumor activity using usual techniques of the art (summary statements); format: cell-based, mouse and human; conditions: in words
Source text: as §2

RAJI = assay: In vitro activity in human leukemic cell line RAJI; format: cell-based; conditions: read-out: ID50 (the source's name)
Source text: as §1, §2

P-815 = assay: In vitro activity in mouse leukemic cell line P-815; format: cell-based; conditions: P815, P-815, in vitro, read-out: ID50 (the source's name)
Source text: as §1, §2

L-1210/0 = assay: In vivo activity of C-nucleosides in mice, L-1210/0 line
Source text: (§3) IN VIVO ACTIVITY OF CNUCLEOSIDES IN MICE
as §2

L-1210/MP = assay: In vivo activity of C-nucleosides in mice, L-1210/MP line; conditions: Q4D × 3,D1 @ 0.4 MG/KG
Source text: as §3, §2

P-815/ARA C = assay: In vivo activity of C-nucleosides in mice, P-815/ARA C line
Source text: as §3, §2

P-815/0 = assay: In vivo activity of C-nucleosides in mice, P-815/0 line
Source text: as §3, §2

Row | IC50 (ALL-CCRF-CEM) [µg/mL] | IC50 (HL-60) [µg/mL] | IC50 (L-1210) [µg/mL] | IC50 (RAJI) [µg/mL] | IC50 (P-815) [µg/mL] | SMILES | antitumor / anti-leukemic activity (leukemic cells; listed as X--NH, R1 =OH) | antitumor / anti-leukemic activity (leukemic cells; listed as first compound in Table 1) | % ILS (L-1210/0; Q4D × 3,D1 @ 0.25 MG/KG) [%] | % ILS (L-1210/0; QD × 5,D1 @ 0.5 MG/KG) [%] | % ILS (L-1210/MP) [%] | % ILS (P-815/ARA C; Q4D × 3,D1 @ 0.4 MG/KG) [%] | % ILS (P-815/ARA C; Q4D × 3,D1 @ 0.7 MG/KG) [%] | % ILS (P-815/0; Q4D × 4,D1 @ 40 MG/KG) [%] | % ILS (P-815/0; QD × 2/Q2D × 3 @ 60 MG/KG) [%]
1 |  |  |  |  | 0.3 (≈ 1.01 µM) | CSc1ncnc2c([C@@H]3O[C@H](CO)[C@@H](O)[C@H]3O)c[nH]c12 [X = NH, R1 = SMe, R2 = H] |  |  |  |  |  |  |  |  | 
2 | 0.0005 (≈ 0.00176 µM) | 0.0005 (≈ 0.00176 µM) | 0.0006 (≈ 0.00212 µM) | 0.002 (≈ 0.00706 µM) | 0.0003 (≈ 0.00106 µM) | Nc1ncnc2c([C@@H]3O[C@H](CO)[C@@H](O)[C@H]3O)csc12 [X = S, R1 = NH2, R2 = H, 7-(β-D-ribofuranosyl)-4-amino-thieno[3,2-d]pyrimidine] |  |  |  |  |  |  |  |  | 
3 | 0.9 (≈ 3.17 µM) | 0.4 (≈ 1.41 µM) | 3.3 (≈ 11.6 µM) | 4.2 (≈ 14.8 µM) | 2.5 (≈ 8.79 µM) | O=c1[nH]cnc2c([C@@H]3O[C@H](CO)[C@@H](O)[C@H]3O)csc12 [X = S, R1 = OH, R2 = H, 7-(β-D-Ribofuranosyl)-3H-4-oxo-thieno[3,2-d]pyrimidine] |  |  |  |  |  |  |  |  | 
4 | 1.6 (≈ 5.33 µM) | 0.4 (≈ 1.33 µM) | 0.6 (≈ 2 µM) | 0.9 (≈ 3 µM) | 0.5 (≈ 1.66 µM) | OC[C@H]1O[C@@H](c2csc3c(=S)[nH]cnc23)[C@H](O)[C@@H]1O [X = S, R1 = SH, R2 = H, 7-(β-D-ribofuranosyl)-3H-4-thiono-thieno[3,2-d]pyrimidine] |  |  |  |  |  |  |  |  | 
5 | 0.006 (≈ 0.0191 µM) | 0.008 (≈ 0.0254 µM) | 0.07 (≈ 0.223 µM) | 0.03 (≈ 0.0954 µM) | 0.03 (≈ 0.0954 µM) | CSc1ncnc2c([C@@H]3O[C@H](CO)[C@@H](O)[C@H]3O)csc12 [X = S, R1 = SMe, R2 = H, 7-(β-D-Ribofuranosyl)-4-methylthio-thieno[3,2-d]pyrimidine] |  |  |  |  |  |  |  | 56.3 | 71.4

More lines, now with the values behind:

Row | SMILES | IC50 (ALL-CCRF-CEM) [µg/mL] | IC50 (HL-60) [µg/mL] | IC50 (L-1210) [µg/mL] | IC50 (RAJI) [µg/mL] | IC50 (P-815) [µg/mL] | antitumor / anti-leukemic activity (leukemic cells; listed as X--NH, R1 =OH) | antitumor / anti-leukemic activity (leukemic cells; listed as first compound in Table 1) | % ILS (L-1210/0; Q4D × 3,D1 @ 0.25 MG/KG) [%] | % ILS (L-1210/0; QD × 5,D1 @ 0.5 MG/KG) [%] | % ILS (L-1210/MP) [%] | % ILS (P-815/ARA C; Q4D × 3,D1 @ 0.4 MG/KG) [%] | % ILS (P-815/ARA C; Q4D × 3,D1 @ 0.7 MG/KG) [%] | % ILS (P-815/0; Q4D × 4,D1 @ 40 MG/KG) [%] | % ILS (P-815/0; QD × 2/Q2D × 3 @ 60 MG/KG) [%]
6 | O=c1[nH]cnc2c([C@@H]3O[C@H](CO)[C@@H](O)[C@H]3O)c[nH]c12 [X = NH, R1 -- OH, R2 = H, reference compound] | > 100 | > 100 | > 100 | > 100 | > 10 | essentially no antitumor activity | lack of activity |  |  |  |  |  |  | 
7 | Nc1nc[nH]c2c([C@@H]3O[C@H](CO)[C@@H](O)[C@H]3O)cnc1-2 [X = NH, R1 = NH2, R2 = H, 7-(β-D-Ribofuranosyl)-4-amino-pyrrolo[3,2-d]pyrimidine] | 0.0008 (≈ 0.003 µM) | 0.0003 (≈ 0.00113 µM) | 0.0008 (≈ 0.003 µM) | 0.002 (≈ 0.00751 µM) | 0.001 (≈ 0.00376 µM) |  |  | 17.0 | 9.1 | 71.8 | 19.8 | 30.8 |  | 
8 | OC[C@H]1O[C@@H](c2c[nH]c3c(=S)[nH]cnc23)[C@H](O)[C@@H]1O [X = NH, R1 = SH, R2 = H] |  |  |  |  | 5.6 (≈ 19.8 µM) |  |  |  |  |  |  |  |  | 
